# Experimental data reported in patent US11767352B2, “Histone anti-cancer vaccines” (DEUTSCHES KREBSFORSCHUNGSZENTRUM, priority 2015, dated 2023).
# Tests used:
# A2.DR1 mice [1] = assay: Intracellular flow cytometry of splenocyte IFNγ responses after vaccination of A2.DR1 mice; assay type: in vivo; details: for IFNγ+ CD8+ T-cell response (intracellular flow cytometry): vaccination with peptide in Montanide, re-stimulation with K27M26-35 or K27 wt26-35, gated on CD45+ CD3+ CD8+ cells
# Source text: (§1) Numbers of spots to MOG35-55 as negative control were subtracted. Mean+/−s.e.m. of n=4 mice per group and representative ELISpots are shown. **p<0.01. (B/C): H3.3-peptide libraries are used to assess MHC binding epitopes in silico: MHC peptide binding predictions for H3.3 K27M (red)- and K27 wt (blue)-containing 10-mer peptides to HLA-A*02:01 using NetMHC algorithm (B) and MHC peptide binding analysis for H3.3 K27M26-35 (red) or K27 wt26-35 (blue) depending on MHC-class-I haplotype (C). Peptides with logscore affinity >0.4 are defined as potential binders. […] Re-stimulation with the vehicle DMSO served as control; gated on CD45+ CD3+ CD8+ cells.
# (§2) As antigen presentation and induction of an effective immune response is critically dependent on MHC haplotype, binding affinities of K27M26-35 to the most frequent class I haplotypes were analyzed. […] Thus, anti-tumor efficacy of H3.3 K27M peptide vaccination was further investigated in a syngeneic HLA-A*02 tumor model.
# A2.DR1 mice [2] = assay: Flow cytometry detection of peptide-specific CD8 T-cells with HLA-A2 dextramer after vaccination of A2.DR1 mice; assay type: in vivo; details: splenocytes after vaccination in Montanide, gated on CD45+ CD3+ cells
# Source text: as §1, §2
sequence,measurement,setting,value
"RMSAPSTGGV (listed as Homo sapiens) [K27M26-35, peptide corresponding to amino acids 26-35 of K27M Histone H3.3]","immune response, HLA-A*02 restricted (summary statement)",A2.DR1 mice [1]; according to the examples,surprisingly strong immune response
same,IFNγ+ CD8+ T-cell response (intracellular flow cytometry),A2.DR1 mice [1],induced IFNγ^+CD8^+-driven mutation-specific cytotoxic T-cell responses
same,IFNγ+ CD8+ T-cell response (intracellular flow cytometry),A2.DR1 mice [1]; listed as H3.3 K27M26-35,induces a mutation-specific CD8-driven T-cell response
same,peptide-specific CD8+ T-cells detected with HLA-A2 dextramer,A2.DR1 mice [2],could be detected directly
same,peptide-specific CD8+ T-cells detected with HLA-A2 dextramer,A2.DR1 mice [2]; listed as H3.3 K27M26-35,CD8-positive T-cells are detected with HLA-A2 multimers
